Reference: patent US20080199441A1, “Use of ex-vivo cultured hematopoietic cells for treatment of peripheral vascular diseases” (priority 2006, published 2008)

What was measured:
[1] = test system: cord-blood-derived, bone marrow-derived, and peripheral blood derived hematopoietic cells; conditions: grown without a feeder layer; cited from earlier work
[2] = test system: hematopoietic stem/progenitor cells (CD34+ or CD133+); experiment: Ex vivo expansion of hematopoietic cells; assay type: cell-based, human; conditions: cultured with cytokines plus inhibitor, compared to cells cultured with cytokines alone
Method: Cell cultures of human hematopoietic cells: Human umbilical cord blood cells were obtained from umbilical cord blood after normal full-term delivery (informed consent was given). MPB, or BM were obtained from donations (informed consent was given). Samples were either used fresh or collected and frozen according to well known cord blood cryopreservation protocol (Rubinstein et al. 1995) within 24 hours postpartum for UCB or according to common practice regarding MPB and BM. Prior to cryopreservation, blood was sedimented for 30 minutes on […] Starch (hydroxyethyl starch) to remove most RBC. Prior to their use, the cells were thawed in Dextran buffer (Sigma, St. Louis, Mo., USA) containing 2.5% human serum albumin (HSA)(Bayer Corp. Elkhart, Ind., USA) and processed as described herein below. Following thawing, where indicated, the leukocyte-rich fraction was harvested and layered on Ficoll-Hypaque gradient (1.077 g/mL; Sigma Inc, St Louis Mo., USA), and centrifuged at 400×g for 30 minutes. The mononuclear cell fraction in the interface layer was then collected, washed three times, and re-suspended in phosphate-buffered saline (PBS) (Biological Industries, Bet HaEmek, Israel) containing 0.5% human serum albumin (HSA) (Bayer Corp. Elkhart, Ind., USA). […] The purity of the CD133^+ populations thus obtained was 80-95%, as evaluated by flow cytometry. […]

Compound: NCCNCCNCCNCCN [TEPA, tetraethylpentamine]
- fraction of CD34+ cells and long-term clonability [1]: greatly enhanced the fraction of CD34^+ cell and their long-term clonability

Compound: NC(=O)c1cccnc1 [nicotinamide]
- enrichment of stem/early progenitor cell subsets (CD34+CD38− and CD34+Lin−) in cultured population [2]: enriched with subsets of stem/early progenitor cells
